Assay [1] in a line: Selectivity for NET over DAT. Format: protein assay. The settings on record: Homo sapiens.
For assay [2], the target named is T1, Sodium-dependent dopamine transporter (Homo sapiens, UniProt Q01959). The assay is described as follows: Displacement of [125I]RTI-55 from DAT. For orientation: Displacement assays read how much labelled ligand stays bound in the presence of the test substance.
Assay [3] addresses T2, Monoamine transporters; serotonin & dopamine (Homo sapiens) (UniProt P31645+Q01959). The assay is described as follows: Selectivity for SERT over DAT. Format: protein assay.
Assay [4] deals with T3, Sodium-dependent serotonin transporter (Homo sapiens, UniProt P31645). The assay is described as follows: Inhibition of [3H]5-HT uptake.
T3 sequence (P31645 whole entry): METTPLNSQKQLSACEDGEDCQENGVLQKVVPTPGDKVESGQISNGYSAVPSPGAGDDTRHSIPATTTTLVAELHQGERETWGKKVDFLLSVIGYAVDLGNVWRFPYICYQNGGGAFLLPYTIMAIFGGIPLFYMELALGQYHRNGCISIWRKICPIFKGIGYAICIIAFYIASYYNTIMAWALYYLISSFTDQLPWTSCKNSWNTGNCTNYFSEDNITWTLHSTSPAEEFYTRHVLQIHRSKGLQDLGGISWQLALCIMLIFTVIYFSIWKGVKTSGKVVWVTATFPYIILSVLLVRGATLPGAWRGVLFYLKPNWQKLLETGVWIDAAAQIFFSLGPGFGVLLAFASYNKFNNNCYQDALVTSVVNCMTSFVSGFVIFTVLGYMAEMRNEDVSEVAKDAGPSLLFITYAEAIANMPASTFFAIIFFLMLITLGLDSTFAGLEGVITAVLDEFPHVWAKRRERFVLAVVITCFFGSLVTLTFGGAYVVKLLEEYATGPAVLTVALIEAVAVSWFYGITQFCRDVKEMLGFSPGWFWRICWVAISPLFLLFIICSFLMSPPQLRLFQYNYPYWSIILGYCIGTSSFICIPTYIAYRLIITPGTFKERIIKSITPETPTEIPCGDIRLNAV
Assay [5] has as its target T4, Sodium-dependent noradrenaline transporter (Homo sapiens, UniProt P23975). As to the kind of experiment: Inhibition of [3H]NE uptake.
The target in assay [6] is T3, Sodium-dependent serotonin transporter. As to the kind of experiment: Displacement of [125I]RTI-55 from SERT.
Assay [7] concerns the target T2, Monoamine transporters; serotonin & dopamine (Homo sapiens). As to the kind of experiment: Ratio for uptake of 5HT over DA. Format: protein assay.
Assay [8] addresses Monoamine transporters; Norepinephrine & dopamine (Homo sapiens) (UniProt Q01959+P23975). As to the kind of experiment: Ratio for uptake of NE over DA. It is filed as protein assay.
For assay [9], the target named is T1, Sodium-dependent dopamine transporter. The assay is described as follows: Inhibition of [3H]DA uptake.
Assay [10] addresses T4, Sodium-dependent noradrenaline transporter. As to the kind of experiment: Displacement of [3H]nisoxetine from NET.

This is an account of results in ChEMBL document CHEMBL1138151, “Design and synthesis of promiscuous high-affinity monoamine transporter ligands: unraveling transporter selectivity” (J Med Chem, 2006).

One may read the Ki as the dissociation constant of the complex between target and ligand, obtained from inhibition or displacement. The low end stands for tighter binding, the high end for weaker binding.

T2 sequence (P31645 whole entry, looked up): as the sequence (P31645 whole entry) above
T2 sequence (Q01959 whole entry, looked up): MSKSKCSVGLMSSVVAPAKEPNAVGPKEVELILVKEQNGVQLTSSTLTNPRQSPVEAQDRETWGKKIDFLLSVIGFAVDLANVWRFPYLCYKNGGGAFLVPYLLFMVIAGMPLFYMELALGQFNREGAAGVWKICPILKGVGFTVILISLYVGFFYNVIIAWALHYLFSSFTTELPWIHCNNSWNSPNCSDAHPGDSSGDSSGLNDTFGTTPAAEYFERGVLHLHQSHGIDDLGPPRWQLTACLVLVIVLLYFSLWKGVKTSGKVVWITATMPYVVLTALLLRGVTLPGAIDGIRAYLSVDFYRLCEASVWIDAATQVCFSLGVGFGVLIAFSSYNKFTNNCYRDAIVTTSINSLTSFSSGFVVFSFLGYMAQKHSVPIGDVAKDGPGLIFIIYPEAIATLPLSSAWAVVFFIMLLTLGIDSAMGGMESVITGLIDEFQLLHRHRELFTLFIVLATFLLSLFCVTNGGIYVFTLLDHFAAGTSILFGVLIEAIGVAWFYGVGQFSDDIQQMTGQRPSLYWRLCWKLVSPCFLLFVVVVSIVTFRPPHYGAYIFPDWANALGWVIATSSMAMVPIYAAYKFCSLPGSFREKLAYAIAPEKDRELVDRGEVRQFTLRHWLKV
T1 sequence (Q01959 whole entry): as the sequence (Q01959 whole entry, looked up) above
T4 sequence (P23975 whole entry): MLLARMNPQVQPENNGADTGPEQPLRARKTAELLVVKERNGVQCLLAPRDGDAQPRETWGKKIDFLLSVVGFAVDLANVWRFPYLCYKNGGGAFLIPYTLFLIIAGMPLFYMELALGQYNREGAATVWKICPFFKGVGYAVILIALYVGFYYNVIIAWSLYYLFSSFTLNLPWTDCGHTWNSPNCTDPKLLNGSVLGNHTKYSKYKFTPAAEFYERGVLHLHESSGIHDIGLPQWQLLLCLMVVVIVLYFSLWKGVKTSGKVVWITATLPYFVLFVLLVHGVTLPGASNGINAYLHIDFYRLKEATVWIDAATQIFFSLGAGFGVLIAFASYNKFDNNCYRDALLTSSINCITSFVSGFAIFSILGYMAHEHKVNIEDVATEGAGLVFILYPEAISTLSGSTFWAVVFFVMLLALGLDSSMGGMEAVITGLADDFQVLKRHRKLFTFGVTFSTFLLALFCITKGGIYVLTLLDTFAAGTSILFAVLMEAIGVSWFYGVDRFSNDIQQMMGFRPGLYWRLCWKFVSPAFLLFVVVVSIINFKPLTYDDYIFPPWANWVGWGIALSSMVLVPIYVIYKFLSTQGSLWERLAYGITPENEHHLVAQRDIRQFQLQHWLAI
Monoamine transporters; Norepinephrine & dopamine (Homo sapiens), sequence (P23975 whole entry, looked up): as the sequence (P23975 whole entry) above
Monoamine transporters; Norepinephrine & dopamine (Homo sapiens), sequence (Q01959 whole entry, looked up): as the sequence (Q01959 whole entry, looked up) above

Turning to `O[C@H](CCc1ccccc1)CN1CCC(CCOC(c2ccc(F)cc2)c2ccc(F)cc2)CC1`, the Ratio Ki is 215 in assay [1], 6 in assay [3], 14 in assay [7] and 56 in [8]. Further, the Ki in [2] was 2.1 nM; in assay [4], 19 nM; in assay [5], 79 nM; in assay [6] it was 13 nM; in assay [9], 1.4 nM; in assay [10], 460 nM.
Turning to `O[C@@H](CCN1CCC(CCOC(c2ccccc2)c2ccccc2)CC1)c1ccccc1`, the values for the Ratio Ki in assay [1] and in assay [3] were 101 and 107, respectively. Also, the Ki in assay [2] was 2.1 nM; in assay [6], 230 nM; in [10] it was 210 nM.
For the compound `Fc1ccc(C(OCCC2CCN(CC3=Cc4ccccc4CC3)CC2)c2ccc(F)cc2)cc1`, the figures for the Ratio Ki in assay [1] and in [3] were 40 and 118, respectively. Moreover, the Ki was 1.1 nM in assay [2], 127 nM in assay [6] and 43 nM in assay [10].
Taken in the same sequence, the figures for `C[C@H](Cc1ccccc1)CN1CCC(CCOC(c2ccc(F)cc2)c2ccc(F)cc2)CC1` were 118, 61, 0.9 nM, 53 nM and 103 nM.
On to `N[C@@H](Cc1ccccc1)CN1CCC(CCOC(c2ccc(F)cc2)c2ccc(F)cc2)CC1`, for which the Ratio Ki was 135 in assay [1], 12 in [3], 18 in assay [7] and 26 in assay [8]. The inhibitory constant (Ki) in assay [2] came out at 6.3 nM; in [4], 228 nM; in assay [5], 338 nM; in assay [6], 76 nM; in assay [9], 13 nM; in [10], 851 nM.
As to `C[C@@H](Cc1ccccc1)CN1CCC(CCOC(c2ccc(F)cc2)c2ccc(F)cc2)CC1`, the Ratio Ki in [1] was determined as 47; in assay [3], 13; in assay [7] it was 33; in assay [8], 42. Moreover, the Ki in assay [2] was 8 nM; in assay [4], 124 nM; in assay [5] it was 160 nM; in assay [6], 100 nM; in assay [9], 3.8 nM; in [10], 380 nM.
In the case of `Fc1ccc(C(OCCC2CCN(C[C@H]3C[C@@H]3c3ccccc3)CC2)c2ccc(F)cc2)cc1`, the Ratio Ki in [1] was 256; in assay [3], 97. Moreover, the Ki worked out at 1.4 nM in [2], 136 nM in assay [6] and 359 nM in assay [10].
In the case of `O[C@@H](CCc1ccccc1)CN1CCC(CCOC(c2ccc(F)cc2)c2ccc(F)cc2)CC1`, the Ratio Ki in assay [1] was 457; in [3], 24. Moreover, the Ki worked out at 1.6 nM in [2], 38 nM in assay [6] and 736 nM in assay [10].
Taken in the same sequence, the figures for `C[C@H](CCN1CCC(CCOC(c2ccc(F)cc2)c2ccc(F)cc2)CC1)c1ccccc1` were 253, 26, 2.2 nM, 58 nM and 560 nM.
With `O[C@H](Cc1ccccc1)CN1CCC(CCOC(c2ccc(F)cc2)c2ccc(F)cc2)CC1`, the Ratio Ki was 240 in assay [1], 18 in [3], 24 in assay [7] and 84 in assay [8]. For the same compound, the Ki in [2] turned out to be 5.1 nM; in [4], 41 nM; in assay [5], 143 nM; in [6] it was 91 nM; in [9], 1.7 nM; in assay [10], 1220 nM.
In the case of `O[C@H](CCN1CCC(CCOC(c2ccccc2)c2ccccc2)CC1)c1ccccc1`, the Ratio Ki is > 3200 in assay [1] and 158 in assay [3]. Moreover, the Ki in assay [2] is 1.8 nM; in assay [6], 280 nM; in assay [10], > 5600 nM.
With `O[C@@H](Cc1ccccc1)CN1CCC(CCOC(c2ccccc2)c2ccccc2)CC1`, the figures for the Ratio Ki in assay [1] and in assay [3] were 359 and 332, respectively. In addition, the Ki stood at 1.4 nM in [2], 450 nM in assay [6] and 485 nM in assay [10].
For `O[C@@H](CCN1CCC(CCOC(c2ccc(F)cc2)c2ccc(F)cc2)CC1)c1ccccc1`, in that order: 515, 26, 0.9 nM, 22 nM and 440 nM.
Taken in the same sequence, the figures for `O[C@@H](Cc1ccccc1)CN1CCC(CCOC(c2ccc(F)cc2)c2ccc(F)cc2)CC1` were 902, 205, 0.4 nM, 82 nM and 361 nM.
Consider `N[C@H](Cc1ccccc1)CN1CCC(CCOC(c2ccc(F)cc2)c2ccc(F)cc2)CC1`, for which the Ratio Ki in [1] came to 78; in assay [3], 6; in assay [7] it was 13; in assay [8], 24. In addition, the Ki in [2] worked out at 12 nM; in assay [4], 229 nM; in assay [5], 402 nM; in [6] it was 68 nM; in assay [9] it was 17 nM; in [10], 941 nM.
For the compound `Fc1ccc(C(OCCC2CCN(C[C@@H]3C[C@H]3c3ccccc3)CC2)c2ccc(F)cc2)cc1`, the Ratio Ki in assay [1] was determined as 1890; in assay [3], 32. The Ki in [2] was 0.5 nM; in [6], 16 nM; in assay [10] it was 947 nM.
As to `O[C@H](Cc1ccccc1)CN1CCC(CCOC(c2ccccc2)c2ccccc2)CC1`, the Ratio Ki in [1] turned out to be 114; in assay [3], 42. The Ki worked out at 6.9 nM in assay [2], 286 nM in [6] and 785 nM in assay [10].
Taken in the same sequence, the figures for `O[C@H](CCN1CCC(CCOC(c2ccc(F)cc2)c2ccc(F)cc2)CC1)c1ccccc1` were 394, 51, 0.8 nM, 43 nM and 330 nM.
Regarding `C[C@@H](CCN1CCC(CCOC(c2ccc(F)cc2)c2ccc(F)cc2)CC1)c1ccccc1`, the Ratio Ki was found to be 259 in assay [1], 22 in assay [3], 36 in assay [7] and 19 in assay [8]. The Ki in assay [2] came to 1.3 nM; in assay [4], 75 nM; in assay [5], 40 nM; in assay [6] it was 30 nM; in [9] it was 2.1 nM; in assay [10], 340 nM.
